Entries after “also recorded” stand apart in the source; their conditions may differ.
Tests used:
[1] = tested on: RAW 264.7 cells; test: Live-dead viability of RAW 264.7 cells on MDP hydrogels; type: cell-based, mouse; conditions: RAW macrophages on 1 wt. % hydrogel, one to three days
Protocol: Cell culture. For in vitro experiments, mouse RAW 264.7 cells (ATCC TIB-71) were grown in DMEM media supplemented with 10% Heat-Inactivated Fetal Bovine Serum (HI-FBS), L-glutamine, sodium pyruvate, and 1% penicillin-streptomycin. Cells were cultured at 37° C. with 5% CO2 and subcultured using scraping.
For 2-D culture live-dead viability studies, peptide hydrogels were pipetted into 0.4 cm^2 wells of Lab-Tek 16 well glass chamber slides (Thermo Fischer, Rochester, NY). Gels were pipetted to produce 70 μL pucks with a thickness of 1.75 mm. The gels were carefully pipetted into the bottom of each well and tapped before shear recovery to create flat gel profiles. After pipetting, the samples were allowed to shear recover for 5-10 min before adding 200 μL cell media and 10,000 RAW 264.7 cells. For each experiment time point (days 1 and 3) separate slides with duplicate gels were created. The cell media was changed every 2 days, taking care to not disturb or dislodge the gel material.
At each desired time point the following procedure was used to stain the cells for live-dead analysis. Live-dead staining solution was prepared in DPBS (Thermo Fisher Scientific, Rockford, IL) with 2 μM Calcein AM (Life Technologies), 4 μM Ethidium homodimer (Life Technologies), and 5 μg/mL Hoechst 33342 (BD Biosciences, San Jose, CA). Cell media was removed from the top of the hydrogel samples, which were then washed with PBS. Samples were then stained with 100 μL of prepared solution by incubating at 37° C. with 5% CO2 for 60 min while protected from light. After staining, the gels were removed from the glass chamber slides and placed in PBS before immediately imaging by confocal. Gels were analyzed by z-stack imaging using a Nikon A1 Confocal Microscope with a 40× water objective (405 nm blue channel laser, 488 nm green channel laser, 561 nm red channel laser). Image processing was done using NIS Elements, and Imaris Cell Counting software was used to quantify live-dead percentages.

[2] = target: T1, iNOS (Mus musculus, UniProt P29477); test: iNOS knockdown in vitro Greiss assay; type: cell-based; conditions: stimulated RAW macrophages cultured on the hydrogel
T1 construct: endogenous in cells; host or cells: RAW 264.7 murine macrophages stimulated with LPS and IFN-gamma
T1 sequence (P29477 1-1144): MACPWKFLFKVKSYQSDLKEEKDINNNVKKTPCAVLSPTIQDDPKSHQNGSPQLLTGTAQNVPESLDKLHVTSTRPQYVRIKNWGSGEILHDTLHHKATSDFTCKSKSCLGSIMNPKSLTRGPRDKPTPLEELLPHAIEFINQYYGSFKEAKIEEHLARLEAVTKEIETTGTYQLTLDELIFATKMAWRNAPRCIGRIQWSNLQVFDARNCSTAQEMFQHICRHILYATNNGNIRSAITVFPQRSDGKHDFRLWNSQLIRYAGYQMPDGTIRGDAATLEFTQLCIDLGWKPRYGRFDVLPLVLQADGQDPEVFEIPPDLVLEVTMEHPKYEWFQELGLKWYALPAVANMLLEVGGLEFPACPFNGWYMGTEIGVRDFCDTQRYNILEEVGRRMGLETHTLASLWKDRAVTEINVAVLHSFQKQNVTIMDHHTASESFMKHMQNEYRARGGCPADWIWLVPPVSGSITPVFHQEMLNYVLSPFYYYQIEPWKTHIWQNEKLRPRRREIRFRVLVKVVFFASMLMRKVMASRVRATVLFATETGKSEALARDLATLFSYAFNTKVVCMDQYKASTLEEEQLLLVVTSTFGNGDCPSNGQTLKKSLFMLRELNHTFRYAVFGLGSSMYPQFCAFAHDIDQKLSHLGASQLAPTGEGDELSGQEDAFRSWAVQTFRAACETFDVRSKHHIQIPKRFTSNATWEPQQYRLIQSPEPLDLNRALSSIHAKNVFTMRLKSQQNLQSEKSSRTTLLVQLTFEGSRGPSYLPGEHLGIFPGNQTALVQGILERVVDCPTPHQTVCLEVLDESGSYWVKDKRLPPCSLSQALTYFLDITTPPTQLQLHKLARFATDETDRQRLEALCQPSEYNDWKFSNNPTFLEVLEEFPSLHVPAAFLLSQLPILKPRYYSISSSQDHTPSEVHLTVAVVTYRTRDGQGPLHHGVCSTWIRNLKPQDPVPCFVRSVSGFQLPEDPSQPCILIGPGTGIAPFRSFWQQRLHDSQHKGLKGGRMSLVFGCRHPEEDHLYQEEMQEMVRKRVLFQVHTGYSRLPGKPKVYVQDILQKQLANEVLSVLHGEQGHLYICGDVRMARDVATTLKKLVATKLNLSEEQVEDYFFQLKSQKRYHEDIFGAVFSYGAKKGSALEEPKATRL
Protocol: iNOS knockdown in vitro Greiss assay. To evaluate the iNOS knockdown efficacy of various materials, the following procedure was used to test % iNOS inhibition of RAW 264.7 cells stimulated with Lipopolysaccharide (LPS, Thermo Fisher Scientific, Rockford, IL) and recombinant mouse IFN-7 (Biolegend, San Diego, CA). RAW macrophages were prepared at a stock concentration of 2.5×10^6 cells/mL, and plated at 2.5×10^5 cells per well in 24-well plates. For samples testing the efficacy of 2-D surface cell culture, 200 μL of MDP hydrogels was applied to evenly coat the surface of each well before addition of cells. Each experimental condition was performed in triplicate. The following controls were included in every experiment, 1) media alone, 2) stimulated cells alone, and 3) unstimulated cells alone. To each well, stimulation media or normal media was then added based on experimental requirement. Stimulation media was prepared with LPS (final concentration 1 μg/mL) and IFN-7 (final concentration 100 U/mL). For samples testing material efficacy in solution (e.g. free L-NIL), after 6 hrs of incubation at 37° C. with 5% CO2 the desired concentration of inhibitor was added to achieve a range of concentrations between 1 μM and 1 mM.
In all cases after 24 hours from time of stimulation, samples of cell media were collected from each well after mixing media by pipetting before collection. Media samples were placed into a 96-well plate and centrifuged at 5000 rpm for 10 min. Supernatants were removed and placed in a new clear 96-well plate, and samples were immediately analyzed using a colorimetric Greiss Assay (Cayman Chemical, Ann Arbor, MI) to assess nitrite levels (Bryan & Grisham, 2007). Color was allowed to develop for 10 min following addition of Greiss reagents, and absorbance was read at 540 nm on a plate reader. Percent iNOS inhibition for each sample was calculated by first subtracting the absorbance of the media-only baseline, and then converting to a percent of maximum nitrite signal as determined by the internal standard of stimulated cells alone.

[3] = tested on: iNOS; test: Anti-nitrotyrosine immunostaining of subcutaneously injected hydrogels; type: in vivo, mice; conditions: subcutaneous implants, 3 and 7 days post injection
Protocol: Subcutaneous experiments and histology. C57BL/6J female mice were purchased from The Jackson Laboratory at age 8-12 weeks for subcutaneous characterization experiments. Mice were housed under specific pathogen-free conditions in standard temperature and lighting conditions with free access to food and water, and experiments were conducted with approval of the Institutional Animal Care and Use Committee (IACUC) at Rice University and according to NIH guidelines. Mice were injected with 100 μL MDP hydrogels in each of four separate sites in the subcutaneous space of the dorsal flank after the skin was shaved and sterilized with alcohol. At days 3, 7, 14, and 21 the mice were euthanized and the dorsal skin around the entire implant was removed, fixed overnight in 10% neutral buffered formalin, processed and paraffin embedded, and finally sectioned at […] thickness for staining using standard Masson's trichrome or hematoxylin and eosin (H&E) procedures, as well as immunohistochemical analyses (e.g., anti-nitrotyrosine IHC, or α-SMA blood vessel analysis).
Immunohistochemistry staining was performed on hydrogel implant tissue sections to further study in vivo properties of the L-NIL-MDP compared to related cationic MDPs. Anti-nitrotyrosine immunostaining was used to assess relative levels of nitrosylation of tyrosine within and around the subcutaneously injected hydrogel implants as a marker of iNOS inhibition (FIGS. 7A-H). It is known that the formation of nitric oxide (NO) and other nitrogen oxides in vivo can lead to observable post-translation modifications of peptides and proteins (Ischiropoulos, 2003). For example, surface-exposed 3-nitrotyrosine can be used as a marker of cell or tissue inflammation and damage by reactive nitrogen and oxygen species such as NO (Ahsan, 2013). The higher the local levels of iNOS activity, the greater should be the density of nitrosylated tyrosine. Therefore, visualization of nitrotyrosine levels by targeted antibodies can serve as a general indication of in vivo iNOS activity, or in the case of the L-NIL-MDP, local iNOS inhibition.

[4] = CDN drug release kinetics from hydrogels; type: physicochemical
Protocol: Drug release kinetics. For release kinetics studies of CDN release from various hydrogel formulations, aliquots of CDN-loaded gel (30 μL each) were deposited into 96 well Falcon® flat bottom plates (Becton Dickinson Labware, Franklin Lakes, NJ). 30 μL gel was pipetted to generate a cylindrical puck in each well for each experiment. The pipetted gels were allowed to shear recover for approximately 5-10 min before adding 200 μL of the relevant buffer to the top of the gels (1× HBSS for all MDPs, 1× DPBS for collagen, Matrigel, 1× HBSS with 0.1 M CaCl2) for alginate, etc. according to the gelation requirements of the material). The addition of buffer was defined as t=0 for the beginning of release kinetics experiments. Table 1 summarizes the material conditions and preparation methods used for various comparative CDN delivery kinetics studies.
A Nanodrop 2000C Spectrophotometer (Thermo Scientific) was used to measure drug release by UV absorbance at 259 nm for CDN ML RR-S2 CDA, using an extinction coefficient of 24,000 M^−1cm^−1 (259 nm). Absorbance measurements were obtained by removing […] from the top of the liquid buffers above the loaded gels, over time measuring the increase in absorbance. Over the course of the first 24 hours, release of CDN was measured usually every 1-2 hours and converted to total percent released, with additional measurements also made every 24 hours for up to a week to establish when equilibrium had been reached.

[5] = tested on: VEGF; test: Serum VEGF ELISA in mice bearing B16-F0 melanoma tumors; type: in vivo; conditions: 5 days after single 100 μL intratumoral injection
Protocol: Evaluation of in vivo VEGF reduction using murine B16-F0 melanoma tumor model. C57BL/6J male mice were purchased from The Jackson Laboratory. […] All experiments were performed with approval of IACUC at Baylor College of Medicine (BCM) and followed established protocols. B16-F0 melanoma cell line was purchased from American Type Culture Collection (ATCC) and maintained according to manufacturer instructions (DMEM high-glucose with 10% fetal bovine serum and 1% penicillin/streptomycin). C57BL/6J mice were injected subcutaneously (s.c.) with 3×10^5 B16-F0 cells in a single flank. Once tumors became palpable (day 7 post-inoculation) mice were injected intratumorally (i.t.) with either vehicle buffer control Hank's Balanced Salt Solution (HBSS), free L-NIL dissolved in HBSS at 20 mM, K2-MDP hydrogel at 1 wt. % (5.6 mM peptide), or L-NIL-MDP hydrogel at 1 wt. % (5.2 mM peptide, or approximately 20 mM L-NIL functional groups). All injections were done using 100 μL total injection volume.
Mice were euthanized 5 days following i.t. injections and tumor/blood were collected. […] VEGF quantification of undiluted serum was performed using a mouse VEGF Quantikine ELISA kit (R&D Systems, Minneapolis, MN) following manufacturer's instructions. […] Statistical differences were evaluated using Tukey's multiple comparisons test. […]

[6] = tested on: MOC1 tumors; test: MOC orthotopic murine model of oral cancer (Example 9); conditions: established 4-5 mm MOC1 tumors, single intratumoral injection
Protocol: MOC orthotopic murine model of oral cancer. MOC1 tumors were established by injecting 2×10^6 cells (70%:30% cells: Matrigel®Matrix) into the maxillary vestibule of the left oral cavity in C57BL/6J mice. […] Tumor growth was monitored by tumor size measurements (in diameter) taken at least two times per week using digital calipers to measure the longest dimension (single dimension). Data was then analyzed for Kaplan-Meier survival and tumor growth curves. […] Excessive tumor burden, defined as tumor diameter reaching 12 mm, tumor ulceration, or a weight loss of greater than 20% were factors that were considered for all endpoints in tumor growth and survival data.
Statistical methods. Statistical analyses were performed using Prism 7.0 (GraphPad, San Diego, CA). Statistical analyses for Kaplan-Meier survival curves were performed using the Log-rank/Mantel-Cox test. Statistical significance for tumor growth curves was determined by a two-way ANOVA test followed by selected comparison using Tukey's multiple comparison tests with multiple comparison correction. All p values were two-sided and p values less than 0.05 were considered significant.

Row | Molecule | cell attachment, survival and proliferation (in words) [1] | iNOS inhibition (in words) [2] | CDN release profile (in words) [4] | further results
1 | Ac-RRSLSLSLSLSLSLRR-NH2 [R2-MDP, R2(SL)6R2] | highest degrees of cell attachment and proliferation | little to no iNOS inhibition; also recorded: lowest iNOS inhibition |  | nitrotyrosine staining intensity (in words) [3]: highest nitrotyrosine staining
2 | Ac-EESLSLSLSLSLSLEE-NH2 [E2-MDP, E2(SL)6E2] | poorer cell survival and proliferation rates | little to no iNOS inhibition | nearly identical release profiles to each other | 
3 | CC(=N)NCCCC[C@H](N)C(=O)O [L-NIL, N6-(1-iminoethyl)-L-lysine, reference compound] |  |  |  | reduction of systemic VEGF levels (in words) [5]: not achieved
4 | Nc1ncnc2c1ncn2[C@@H]1O[C@@H]2COP(O)(=S)O[C@@H]3C(O)[C@@H](COP(O)(=S)O[C@H]2[C@H]1O)O[C@H]3n1cnc2c(N)ncnc21 (stereo partly drawn) [CDN, ML RR-S2 CDA] |  |  |  | mice surviving to the 150-day endpoint [6]: 20%
5 | O5(SL)6O5 [05-MDP] |  |  | nearly identical release profiles to each other | 
